In PubChem BioAssay (NCI):
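48-hour exposure; five concentrations; linearly interpolated endpoints. Here, GI50 denotes the concentration required for 50% inhibition of growth. TGI is the concentration that stops growth completely.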

Assays:
Assay in all cases: NCI-60 cell line screen, 48 h
PC-3 prostate = test system: PC-3 prostate
EKVX NSCLC = test system: EKVX NSCLC
RXF 393 renal = test system: RXF 393 renal
KM12 colon = test system: KM12 colon
SK-MEL-2 melanoma = test system: SK-MEL-2 melanoma
ACHN renal = test system: ACHN renal
BT-549 breast = test system: BT-549 breast
OVCAR-5 ovarian = test system: OVCAR-5 ovarian
SNB-75 CNS = test system: SNB-75 CNS
HCC-2998 colon = test system: HCC-2998 colon
SF-539 CNS = test system: SF-539 CNS
U251 CNS = test system: U251 CNS
RPMI-8226 leukemia = test system: RPMI-8226 leukemia
HS 578T breast = test system: HS 578T breast
SK-MEL-28 melanoma = test system: SK-MEL-28 melanoma
M14 melanoma = test system: M14 melanoma
NCI-H460 lung = test system: NCI-H460 lung
UACC-257 melanoma = test system: UACC-257 melanoma
UO-31 renal = test system: UO-31 renal
TK-10 renal = test system: TK-10 renal
UACC-62 melanoma = test system: UACC-62 melanoma
MDA-MB-231 breast = test system: MDA-MB-231 breast
A498 renal = test system: A498 renal
CCRF-CEM leukemia = test system: CCRF-CEM leukemia
NCI-H226 lung = test system: NCI-H226 lung
CAKI-1 renal = test system: CAKI-1 renal
HCT-15 colon = test system: HCT-15 colon
786-0 renal = test system: 786-0 renal
HOP-92 NSCLC = test system: HOP-92 NSCLC
SK-OV-3 ovarian = test system: SK-OV-3 ovarian
OVCAR-4 ovarian = test system: OVCAR-4 ovarian
HT29 colon = test system: HT29 colon
SF-268 CNS = test system: SF-268 CNS
T-47D breast = test system: T-47D breast
COLO 205 colon = test system: COLO 205 colon
K-562 leukemia = test system: K-562 leukemia
HOP-62 NSCLC = test system: HOP-62 NSCLC
MOLT-4 leukemia = test system: MOLT-4 leukemia
SK-MEL-5 melanoma = test system: SK-MEL-5 melanoma
DU-145 prostate = test system: DU-145 prostate
NCI-H23 lung = test system: NCI-H23 lung
NCI/ADR-RES ovarian = test system: NCI/ADR-RES ovarian
NCI-H522 lung = test system: NCI-H522 lung
HCT-116 colon = test system: HCT-116 colon
LOX IMVI melanoma = test system: LOX IMVI melanoma
SF-295 CNS = test system: SF-295 CNS
OVCAR-8 ovarian = test system: OVCAR-8 ovarian
MALME-3M melanoma = test system: MALME-3M melanoma
A549 NSCLC = test system: A549 NSCLC
SNB-19 CNS = test system: SNB-19 CNS
SN12C renal = test system: SN12C renal
HL-60(TB) leukemia = test system: HL-60(TB) leukemia
MDA-MB-435 = test system: MDA-MB-435
MCF7 breast = test system: MCF7 breast
IGROV1 ovarian = test system: IGROV1 ovarian
SW-620 colon = test system: SW-620 colon

COc1cc(/C=C\c2cc(/C=C\c3ccc(O)c(OC)c3)n(C(=O)COc3ccc(Cl)cc3Cl)n2)ccc1O
GI50 (PC-3 prostate): 1.8 µM
TGI (PC-3 prostate): 8.02 µM
GI50 (EKVX NSCLC): 1.98 µM
TGI (EKVX NSCLC): 9.72 µM
GI50 (RXF 393 renal): 1.27 µM
TGI (RXF 393 renal): 3.33 µM
GI50 (KM12 colon): 0.506 µM
TGI (KM12 colon): 26.2 µM
GI50 (SK-MEL-2 melanoma): 0.302 µM
TGI (SK-MEL-2 melanoma): 1.54 µM
GI50 (ACHN renal): 0.476 µM
TGI (ACHN renal): 9.13 µM
GI50 (BT-549 breast): 0.526 µM
TGI (BT-549 breast): 3.34 µM
GI50 (OVCAR-5 ovarian): 2.71 µM
TGI (OVCAR-5 ovarian): 8.32 µM
GI50 (SNB-75 CNS): 0.994 µM
TGI (SNB-75 CNS): 7.81 µM
GI50 (HCC-2998 colon): 2.89 µM
TGI (HCC-2998 colon): 12.4 µM
GI50 (SF-539 CNS): 0.38 µM
TGI (SF-539 CNS): 2.85 µM
GI50 (U251 CNS): 0.916 µM
TGI (U251 CNS): 6.15 µM
GI50 (RPMI-8226 leukemia): 0.569 µM
TGI (RPMI-8226 leukemia): 7.62 µM
GI50 (HS 578T breast): 1.2 µM
TGI (HS 578T breast): > 100 µM
GI50 (SK-MEL-28 melanoma): 1.19 µM
TGI (SK-MEL-28 melanoma): 7.32 µM
GI50 (M14 melanoma): 0.349 µM
TGI (M14 melanoma): 4.83 µM
GI50 (NCI-H460 lung): 0.517 µM
TGI (NCI-H460 lung): 14.2 µM
GI50 (UACC-257 melanoma): 2.19 µM
TGI (UACC-257 melanoma): 7.13 µM
GI50 (UO-31 renal): 0.362 µM
TGI (UO-31 renal): 2.3 µM
GI50 (TK-10 renal): 1.79 µM
TGI (TK-10 renal): 8.06 µM
GI50 (UACC-62 melanoma): 0.552 µM
TGI (UACC-62 melanoma): 12 µM
GI50 (MDA-MB-231 breast): 2.38 µM
TGI (MDA-MB-231 breast): 23.4 µM
GI50 (A498 renal): 3.82 µM
TGI (A498 renal): 12 µM
GI50 (CCRF-CEM leukemia): 0.432 µM
TGI (CCRF-CEM leukemia): > 100 µM
GI50 (NCI-H226 lung): 2.98 µM
TGI (NCI-H226 lung): 10.2 µM
GI50 (CAKI-1 renal): 0.818 µM
TGI (CAKI-1 renal): > 100 µM
GI50 (HCT-15 colon): 0.342 µM
TGI (HCT-15 colon): 3.61 µM
GI50 (786-0 renal): 0.634 µM
TGI (786-0 renal): 2.52 µM
GI50 (HOP-92 NSCLC): 2.93 µM
TGI (HOP-92 NSCLC): 7.94 µM
GI50 (SK-OV-3 ovarian): 1.26 µM
TGI (SK-OV-3 ovarian): 3.43 µM
GI50 (OVCAR-4 ovarian): 1.29 µM
TGI (OVCAR-4 ovarian): > 100 µM
GI50 (HT29 colon): 2.75 µM
TGI (HT29 colon): 7.03 µM
GI50 (SF-268 CNS): 0.621 µM
TGI (SF-268 CNS): 9.84 µM
GI50 (T-47D breast): 1.25 µM
TGI (T-47D breast): 3.99 µM
GI50 (COLO 205 colon): 1.98 µM
TGI (COLO 205 colon): 4.01 µM
GI50 (K-562 leukemia): 0.381 µM
TGI (K-562 leukemia): > 100 µM
GI50 (HOP-62 NSCLC): 0.519 µM
TGI (HOP-62 NSCLC): 3.16 µM
GI50 (MOLT-4 leukemia): 0.425 µM
TGI (MOLT-4 leukemia): 3.46 µM
GI50 (SK-MEL-5 melanoma): 0.661 µM
TGI (SK-MEL-5 melanoma): 3.03 µM
GI50 (DU-145 prostate): 0.833 µM
TGI (DU-145 prostate): 9.94 µM
GI50 (NCI-H23 lung): 1.06 µM
TGI (NCI-H23 lung): 5 µM
GI50 (NCI/ADR-RES ovarian): 0.538 µM
TGI (NCI/ADR-RES ovarian): 21.1 µM
GI50 (NCI-H522 lung): 0.196 µM
TGI (NCI-H522 lung): 0.837 µM
GI50 (HCT-116 colon): 0.416 µM
TGI (HCT-116 colon): 6.21 µM
GI50 (LOX IMVI melanoma): 0.497 µM
TGI (LOX IMVI melanoma): 3.29 µM
GI50 (SF-295 CNS): 3.07 µM
TGI (SF-295 CNS): 8.87 µM
GI50 (OVCAR-8 ovarian): 1.59 µM
TGI (OVCAR-8 ovarian): 6.09 µM
GI50 (MALME-3M melanoma): 0.488 µM
TGI (MALME-3M melanoma): 5.03 µM
GI50 (A549 NSCLC): 1.31 µM
TGI (A549 NSCLC): 10.3 µM
GI50 (SNB-19 CNS): 1.41 µM
TGI (SNB-19 CNS): 11.7 µM
GI50 (SN12C renal): 0.935 µM
TGI (SN12C renal): 65.8 µM
GI50 (HL-60(TB) leukemia): 0.314 µM
TGI (HL-60(TB) leukemia): 1.31 µM
GI50 (MDA-MB-435): 0.243 µM
TGI (MDA-MB-435): 14.7 µM
GI50 (MCF7 breast): 0.336 µM
TGI (MCF7 breast): 2.33 µM
GI50 (IGROV1 ovarian): 1.99 µM
TGI (IGROV1 ovarian): 10.3 µM
GI50 (SW-620 colon): 0.659 µM
TGI (SW-620 colon): > 100 µM
